Results: patent US4416891A, “Ester of 6-[(hexahydro-1H-azepin-1-yl)methyleneamino]penicillanic acid, and its use as antibacterial agent” (priority 1981, dated 1983)
Where a name gives a salt, the structure may show the parent alone. Read-outs that look alike come from different tables or passages of the source.

What was measured:
[1] = cited from earlier work
[2] = tested on: Gram-negative bacteria, especially Escherichia coli and Klebsiella pneumoniae; settings: compared with Gram-positive bacteria; cited from earlier work
[3] = tested on: Escherichia coli NIHJ; assay: Antibacterial activity in oral administration to mice (inhibitory zone of serum samples); type: in vivo; settings: male ddY mice, dose corresponding to 50 mg/kg of Mecillinam, average of n=4, read-out: Diameter of the inhibitory zone
Experimental: Antibacterial activity in oral administration to mice
Compound (I).HCl.H2 O and Pivmecillinam.HCl.
(§1) (b) Experimental procedure
Male ddY mice (6 weeks old, body weight 28±2 g) were used. They were caused to fast for 16 hours before the administration of the test compounds.
An aqueous solution (5 mg/ml) of each of the test compounds was prepared, and orally administered to mice (five per group) in a dose corresponding to 50 mg/kg of Mecillinam.
Blood samples were taken individually from five mice in each group at 30, 60 and 90 minutes after the administration of each compound. The blood samples were immediately centrifuged individually at 3,000 rpm for 15 minutes, and serum samples obtained (each in an amount of 0.2 ml) were combined to give 1 ml of serum for assaying.
(4) Measurement of antibacterial activity
0.2 ml of a suspension of Escherichia coli NIHJ as test organism was added to 5 ml of nutrient agar kept at about 48° C. to give an agar plate. The assaying serum prepared in (3) above was infiltrated into a paper disc (a thick type with a diameter of 8 mm, supplied by Toyo Filter Paper Co., Ltd.), and the paper disc was placed on the agar plate (n=4). It was maintained at 37° C. for 18 hours, and the diameter of the resulting inhibitory zone was measured with respect to each of the serum samples.
The diameter of the inhibitory zone (an average of n=4) measured with respect to each of the serum samples was as shown in Table 1.

[4] = Toxicity test: acute toxicity (LD50) in oral administration; settings: mouse, in vivo, male ddY-strain mice, five per group
Text: The acute toxicity (LD50) of compound (I).HCl.H2 O and Pivmecillinam.HCl in oral administration was examined by using male ddY-strain mice (body weight 22 to 25 g; five per group).

[5] = oral, man, 400 mg; cited from earlier work
[6] = Stability in an artificial intestinal juice (bioautography); type: in vitro ADME; settings: pH about 6.8, 37° C.
Experimental: Stability in an artificial intestinal juice
as §1
A test solution was prepared in the same way as in Test Example 1, (b), (1) except that the artificial intestinal juice described in The Pharmacopoeia of Japan, 10th edition (having a pH of about 6.8 and prepared by adding water to 250 ml of a 0.2 M aqueous solution of potassium dihydrogen phosphate and 118 ml of a 0.2 N aqueous solution of sodium hydroxide to form a solution having a total volume of 1000 ml) was used instead of the artificial gastric juice.
Performed in the same way as in Test Example 1, (b), (2).

[7] = Stability in an artificial gastric juice (bioautography); type: in vitro ADME; settings: pH about 1.2, 37° C.
Experimental: Stability in an artificial gastric juice
(5-methyl-2-oxo-1,3-dioxolen-4-yl)methyl 6-[(hexahydro-1H-azepin-1-yl)methleneamino]penicillanate hydrochloride monohydrate [compound (I).HCl.H2 O]
as §1
A solution of 2 mg of compound (I).HCl.H2 O in 0.2 ml of dimethyl sulfoxide was added to 3.8 ml of the artificial gastric juice described in The Pharmacopoeia of Japan, 10th edition (having a pH of about 1.2 and prepared by adding 24.0 ml of 10% HCl to 2.0 g of sodium chloride and adding water to adjust the total amount to 1000 ml). The solution was maintained at 37° C., and bioautographed as shown below after the lapse of 10 minutes, 30 minutes, and 50 minutes, respectively.
(i) The test solution was spotted on a cellulose plate [Cellulose F (Art 5718 supplied by Merck & Co.)] for thin-layer chromatography, and developed with the upper layer of a mixture of n-butanol, ethanol and water in a ratio of 4:1:5. The plate was dried in the air, and a 10% aqueous solution of mouse serum was sprayed onto the plate. […]
(iv) After the cultivation, the position (Rf value) of an inhibitory zone on the plate against E. coli NIHJ was determined. From this Rf value and Rf values of compound (I).HCl.H2 O and Mecillinam (X) separately determined under the same conditions as in (i) to (iii) above, the compound in the test solution was identified. […]

[8] = Stability in mouse serum (bioautography); type: in vitro ADME; settings: 40% mouse serum, 37° C., pH 7.4 phosphate buffer
Experimental: as §1
4 ml of mouse serum was added to 5.6 ml of 0.1 M phosphate buffer (pH 7.4), and then a portion (0.4 ml) of a solution of 20 mg of compound (I).HCl.H2 O in 1 ml of dimethyl sulfoxide was added. The solution was kept at 37° C. for 10 minutes to form a test solution.
The test solution obtained in (1) above was subjected to the same operation as in Example 1, (b), (2).

[9] = 0.5 h, blood letting time 30 min
[10] = in Mus musculus, blood letting time 90 min

Row | SMILES | absorbability or bioavailability in oral administration [1] | antibacterial spectrum [2] | zone of inhibition at 50 mg/kg [3, 9] [mm] | zone of inhibition at 50 mg/kg ([3]; 1 h, blood letting time 60 min) [mm] | zone of inhibition at 50 mg/kg [3, 10] [mm] | LD50 [4] [mg/kg] | urinary excretion after the 6 hour period [5] [%] | stability in the artificial intestinal juice [6] | period of stability in the artificial gastric juice [7] | transformation to Mecillinam (X) in mouse serum [8]
1 | CC1(C)S[C@@H]2[C@H](N=CN3CCCCCC3)C(=O)N2[C@H]1C(=O)O [Mecillinam (X), 6-[(hexahydro-1H-azepin-1yl)methyleneamino]penicillanic acid] | low | stronger activity against Gram-negative bacteria, especially Escherichia coli and Klebsiella pneumoniae, than against Gram-positive bacteria |  |  |  |  |  |  |  | 
2 | CC(C)(C)C(=O)OCOC(=O)[C@@H]1N2C(=O)[C@@H](N=CN3CCCCCC3)[C@H]2SC1(C)C [Pivmecillinam.HCl] |  |  | 23.2 | 20.8 | 18 | 3840 |  |  |  | 
3 | CC(C)(C)C(=O)OCOC(=O)[C@@H]1N2C(=O)[C@@H](N=CN3CCCCCC3)[C@H]2SC1(C)C [Pivmecillinam (X')] |  |  |  |  |  |  | 45 |  |  | 
4 | Cc1oc(=O)oc1COC(=O)[C@@H]1N2C(=O)[C@@H](N=CN3CCCCCC3)[C@H]2SC1(C)C [Compound (I).HCl.H2 O, (5-methyl-2-oxo-1,3-dioxolen-4-yl)methyl 6-[(hexahydro-1H-azepin-1-yl)methleneamino]penicillanate hydrochloride monohydrate] |  |  | 23.3 | 20 | 17.2 | 5210 |  | stable in the artificial intestinal juice | more than 50 minutes | transformed to Mecillinam (X) in 40% mouse serum within ten minutes at 37 °C
